Data: a melting point compilation (Tetko et al.; mined from patent text by program, amines drawn as free bases though some values may be those of a salt)

First: O=C(O)CCCCc1cc(O)c(O)cc1[N+](=O)[O-]
Second: O=C(O)CCCCCCCSc1ccc(O)cc1
The melting point of the first is higher: 111 to 114 °C for the first, 94 to 95 °C for the second.

Compared with `COc1ccc(C(CS(C)(=O)=O)N2C(=O)c3cccc(NC(C)=O)c3C2=O)cc1OCC1CC1` (stereo not given), `COc1ccc(NC(=O)c2ccc(F)c(F)c2)cc1NS(=O)(=O)c1cccc([N+](=O)[O-])c1` is higher in melting point: 102 to 104 °C for the first, 150 to 160 °C for the second.

First: CC(C)(C)c1cc(Cl)nc(N)n1
Second: Cc1ccc2nc(S)sc2c1
The melting point of the first is lower: 87.7 to 88.9 °C for the first, 179 to 181 °C for the second.

First: O=S(=O)(c1ccc(O)cc1)c1ccc(O)c2ccccc12
Second: Cc1ccc(-c2c3ccccc3nn2Cc2ccccc2)cc1
The melting point of the first is higher: 198 to 199 °C for the first, 111 °C for the second.

First: O=C(O)c1ccc(OCC(O)c2cc3ccccc3o2)cc1 (stereo not given)
Second: CCCc1c([C@@H]2C[C@H]2c2ccccc2)oc2ccc(C(=O)O)cc2c1=O (relative stereo)
The melting point of the first is lower: 153 to 155 °C for the first, 195 to 196 °C for the second.

Compared with `CNCC(=O)NC(=O)N(CCCl)N=O`, `CCOC(=O)C=Cc1ccc(NC(=O)CC)cc1` is higher in melting point: 86 to 88 °C for the first, 138 °C for the second.

First: O=C(CSc1ncc(-c2ccccc2)cn1)NC1CCN(Cc2ccc(Cl)c(Cl)c2)CC1
Second: O=C(c1ccccc1)c1cnn2c(-c3cccc(N4CCCCC4=O)c3)ccnc12
The melting point of the first is lower: 157 °C for the first, 160 to 162 °C for the second.

Compared with `COc1cccc(C(=O)Nc2ccc(C(C)=O)cc2)c1`, `O=C(Nc1ccc(-c2ncon2)cc1)Oc1ccccc1` is higher in melting point: 152 to 154 °C for the first, 157 to 158 °C for the second.

First: N#Cc1c(N2CCc3ccccc3CC2)nc(=O)[nH]c1OCC(F)(F)F
Second: O=C1CCCN1CC1(O)CCN(c2ccnc(C(F)(F)F)n2)CC1
The melting point of the first is higher: 196 to 198 °C for the first, 170 to 172 °C for the second.

First: CCCOc1ccc(C)cc1C(=N)OCC
Second: CCOC(=O)C1=C(C(=O)OCC)c2c(OC)ccc(Br)c2C1
The melting point of the first is higher: 148 to 150 °C for the first, 99 to 101 °C for the second.

First: COc1cc2c(cn1)CCC(=CN(C)C)C2=O
Second: CCn1ncc2c(Cl)c3c(nc21)C(=O)c1ccccc1CC3
The melting point of the first is lower: 102 to 104 °C for the first, 156 to 159 °C for the second.

Compared with `COc1ccc(CCN(C)CCCCc2ccc(NC(=O)c3cccc4c(=O)c5ccccc5[nH]c34)cc2)cc1`, `Cn1c(COc2ccc(CC3SC(=O)NC3=O)cc2)nc2ccc(Oc3ccc(NC(=O)c4cccnc4)cc3)cc21` (stereo not given) is higher in melting point: 143 °C for the first, 213 to 215 °C for the second.

First: NS(=O)(=O)c1cc(C(=O)O)cc(SCc2ccccc2)c1-c1ccccc1
Second: O=C1NCC(Cc2ccccc2OCc2ccccc2)O1 (stereo not given)
The melting point of the first is higher: 114 to 120 °C for the first, 90 to 91 °C for the second.

First: CC(C)(C)OC(=O)N[C@@H](Cc1ccccc1)C(=O)CCl
Second: COC(=O)C(Cc1ccccc1)NC(=O)C(CC(=O)O)NC(=O)CC(C)=O (stereo not given)
The melting point of the first is lower: 101 to 102 °C for the first, 118 to 121 °C for the second.

First: CC(=O)Nc1ccc(OCC(O)CNC(C)(C)C)c(-c2nnco2)c1 (stereo not given)
Second: CCc1cccc(C)c1CNc1cc(C(=O)N(C)C)cn2c(C)nnc12
The melting point of the first is lower: 157 to 160 °C for the first, 201 °C for the second.

Compared with `COc1ccc(C(=O)c2ccc(OCC(=O)O)c(Cl)c2Cl)cc1`, `COc1ccc(CNc2c(Cl)cnn(C)c2=O)cc1` is lower in melting point: 158 to 159 °C for the first, 94 to 96 °C for the second.

First: Fc1ccc(Nc2ncnc3cnc(NCCN4CCNCC4)nc23)cc1Cl
Second: CCc1c2nc(-c3cc(S(C)(=O)=O)ccc3OCC(C)C)[nH]c(=O)c2nn1CCN1CCOCC1
The melting point of the first is lower: 173 to 175 °C for the first, 268 to 273 °C for the second.

First: COc1cc(Nc2nccc(Nc3ccc(CCO)cc3)n2)cc(OC)c1OC
Second: COc1cc2c(cc1OC)CN(CC(=O)Nc1ccc([N+](=O)[O-])cc1)CC2
The melting point of the first is lower: 172 °C for the first, 173 to 178 °C for the second.

Compared with `CCCCCC(CC(=O)O)c1ccc(OC)cc1OC` (single isomer, unassigned; (+)), `COc1ccnc(CSc2nc3cscc3n2COC(C)=O)c1` is higher in melting point: 51 to 52 °C for the first, 111 to 113 °C for the second.

First: O=C1CCc2cc(OCC(F)(F)C(F)(F)F)ccc21
Second: O=C1COc2ccc3ccccc3c21
The melting point of the first is lower: 52 to 54 °C for the first, 194 to 196 °C for the second.

First: CCOCc1nc2c(N)nc(C)c(C)c2n1NC1CCC1
Second: CC(=O)OCc1nc2ccc(Oc3cc(C)c(OC(C)=O)c(C)c3C)nc2n1C
The melting point of the first is higher: 139 to 141 °C for the first, 128 to 129 °C for the second.

First: CNC(=O)N(O)Cc1ccc2c(c1)OCc1ccccc1C2=O
Second: O=C(O)c1cc(Cl)cc2c1NC(c1ccccc1)CC2 (stereo not given)
The melting point of the first is lower: 155 to 157 °C for the first, 199 to 200 °C for the second.

Compared with `FC(F)Oc1ccc(C2=NNCC2n2cc(Cl)cn2)cc1` (stereo not given), `O=C(NCCO)/C(=C/c1ccc(OC(F)F)cc1)NC(=O)c1ccc(OCCC2CC2)cc1` is higher in melting point: 93 °C for the first, 153 to 155 °C for the second.

First: CN(C)C(=N[N+](=O)[O-])N(C)Cc1cnc(Cl)s1
Second: COc1ncnc(OC)c1[N+](=O)[O-]
The melting point of the first is lower: 101 to 102 °C for the first, 168 to 170 °C for the second.

Compared with `COc1ccc(/C=C/c2ccncc2[N+](=O)[O-])cc1OC1CCCC1`, `COC(=O)c1cncn1C1CC2CCCCC2c2ccccc21` (stereo not given) is higher in melting point: 114 to 116 °C for the first, 140 °C for the second.

Compared with `CCS(=O)(=O)Nc1cc(C2(NC)NC=NC=C2Cl)c(F)cc1C#N` (stereo not given), `CCNc1c(C#N)cnn1-c1ccc(Cl)c(Cl)c1Cl` is lower in melting point: 211 to 212 °C for the first, 145 °C for the second.

First: CCOCn1c(-c2ccc(Cl)cc2)c(S(=O)(=O)c2ccc(Cl)cc2)c(Br)c1C(F)(F)F
Second: Cc1cc(-c2ccc(Cl)cc2)nc(-c2ccnc(-c3ccc(S(N)(=O)=O)s3)c2)n1
The melting point of the first is lower: 107 to 112 °C for the first, 232 °C for the second.

Compared with `Cc1ccccc1NC(=O)CI`, `CC(=O)NNC(=O)c1cccc(I)c1` is higher in melting point: 145 to 146 °C for the first, 156 to 158 °C for the second.

First: N#Cc1nc(F)c(F)c(F)c1Cl
Second: N#Cc1c(Cl)nc(Cl)nc1N1CCSCC1
The melting point of the first is lower: 41.5 to 43 °C for the first, 180 °C for the second.

First: O=C(Nc1cccc(Oc2ccc3nc(NC(=O)C4CC4)cn3n2)c1)c1ccccc1
Second: Cc1ccc(C(=O)NC(NC(=S)Nc2cccc([N+](=O)[O-])c2)C(F)(F)F)cc1 (stereo not given)
The melting point of the first is higher: 265 °C for the first, 185 to 186 °C for the second.

First: N#CCCSc1nnsc1-c1ccccc1
Second: OC(CN1CC1)c1ccccc1 (stereo not given)
The melting point of the first is lower: 63.5 to 64.5 °C for the first, 74 to 76 °C for the second.

First: Cn1ncc(C(=O)N2CCOCC2)c1C(=O)Nc1ccn2nc(N3CCCC3)nc2c1
Second: CN1CCN(c2ccc(C(=O)N[C@H]3CC[C@H](CCN4CCN(c5nccc6c5CCO6)CC4)CC3)cc2)CC1
The melting point of the first is lower: 194 to 197 °C for the first, 236 °C for the second.

Compared with `Nc1ccn(CC2CC2)c(=O)n1`, `CCOC(=O)c1nn(-c2ccc(Cl)cc2)c2c1CCCC2` is lower in melting point: 264 to 266 °C for the first, 139 to 140 °C for the second.

Compared with `CC1(C)[C@H]2CC[C@@H](CC(=O)O)[C@@H]1C2`, `COC(=O)C1(NC(=O)Cc2cc(-c3ccc(Cl)cc3)ccc2Cl)CCC(C)(C)CC1` is higher in melting point: 50 to 53 °C for the first, 128 °C for the second.

First: Cc1cnc(-c2ncn3c2[C@@H]2CCCN2C(=O)c2c(Cl)cccc2-3)o1
Second: Cc1cccc(CC(=O)NC(C)C)c1NC(=O)c1cc(C(F)(F)F)nn1-c1ncccc1Cl
The melting point of the first is higher: 228 to 230 °C for the first, 206 to 207 °C for the second.

First: Nc1nc(-c2ccncc2)nc(N)c1N
Second: CSc1cncc(-c2nc(=O)c3ccccc3s2)n1
The melting point of the first is higher: 230 to 232 °C for the first, 202 to 203 °C for the second.

First: Cc1ccc(C(=O)C(=C2NCCCS2)[N+](=O)[O-])cc1
Second: CCOC(=O)c1sc(-c2ccc(C#N)cc2)nc1C
The melting point of the first is lower: 141 to 143 °C for the first, 144 °C for the second.

Compared with `CC(C)(C)C(=O)C(C(Cl)C(Cl)(Cl)Cl)n1cncn1` (stereo not given), `O=S(=O)(CCO)C(F)(F)C(O)(Cn1cncn1)c1ccc(F)cc1F` (stereo not given) is higher in melting point: 111 to 113 °C for the first, 113 to 115 °C for the second.

First: O=C(CCn1ccnc1)c1c[nH]c2ccccc12
Second: CCCC(=O)c1c[nH]c2ccsc2c1=O
The melting point of the first is lower: 194 to 197 °C for the first, 244 to 247 °C for the second.

First: CC(=O)N1CC(C)(C)c2cc3nc(C(F)(F)F)[nH]c3cc21
Second: CC(=O)On1c(=O)c(=O)[nH]c2cc(C(F)(F)F)c(C#N)cc21
The melting point of the first is higher: 290 to 291 °C for the first, 230 °C for the second.

First: O=C(O)C1(C(F)F)c2ccccc2Oc2ccccc21
Second: O=C1COC(C#Cc2ccccc2)(C(F)(F)F)c2cc(Cl)ccc2N1 (stereo not given)
The melting point of the first is lower: 181 to 182 °C for the first, 190 to 191 °C for the second.

First: COc1ccc(S(=O)(=O)c2ccc(C)nc2Nc2c(C)cc(C)cc2C)cc1
Second: COc1ccc(CNS(=O)(=O)Cc2ccc3[nH]cc(CCN(C)C)c3c2)cc1
The melting point of the first is lower: 165 to 167 °C for the first, 200 to 201 °C for the second.

First: CC=CCn1c(C)c(C)c2cnnc(SCc3ccc(Cl)cc3Cl)c21
Second: ClCCCN1c2ccccc2OCOc2ccc(Cl)cc21
The melting point of the first is lower: 81 to 85 °C for the first, 105 to 108 °C for the second.

Compared with `O[C@@H](COc1cccc(-c2noc3ccsc23)c1)CN1CCN(c2ccccc2C(F)(F)F)CC1`, `COc1ccc(-c2nc(-c3ccccc3)sc2-c2ccc(OC)cc2)cc1` is higher in melting point: 77 to 79 °C for the first, 117 to 118 °C for the second.

Compared with `O=C1c2cc(N(CCO)CCO)ccc2OC12CC2`, `CN(C)C1=CCCS(=O)(=O)c2ccc(Cl)cc21` is lower in melting point: 96 to 97 °C for the first, 93 to 95 °C for the second.

Compared with `O=C1Nc2cnncc2C(=O)C1c1c(F)cc(F)cc1F` (stereo not given), `O=C(Nc1cnc2sc3c(c2c1-c1ccccc1Cl)CCC3)c1ccc(F)cc1F` is lower in melting point: > 300 °C for the first, 219 to 220 °C for the second.

First: CC1COP(=O)(Cc2ccc([N+](=O)[O-])cc2)OC1 (stereo not given)
Second: O=C(O)c1cc([N+](=O)[O-])cs1
The melting point of the first is higher: 170 to 171 °C for the first, 110 to 118 °C for the second.

First: COC(=O)C1(Oc2cc(-n3c(=O)cc(C(F)(F)F)n(C)c3=O)c(F)cc2Cl)CC=CNC1=O (stereo not given)
Second: Cc1cc(Br)c2[nH]c(=O)n(CCCN3CC=C(c4ccc(Cl)cc4)CC3)c(=O)c2c1
The melting point of the first is lower: 82.4 °C for the first, 212 to 214 °C for the second.

First: CCNC(=O)c1nnc(S)o1
Second: COC(=O)c1ccc(NS(C)(=O)=O)c(C=O)c1
The melting point of the first is higher: 210 °C for the first, 161 to 163 °C for the second.

First: O=C(C=Cc1ccccc1)OCC#CC#CCOC(=O)C=Cc1ccccc1
Second: O=c1ccn(C2C=CC(COC(c3ccccc3)(c3ccccc3)c3ccccc3)O2)c(=O)[nH]1 (stereo not given)
The melting point of the first is lower: 102 to 104 °C for the first, 188 to 191 °C for the second.

Compared with `CC1(COCC(COCC2(C)COC2)(COCC2(C)COC2)COCC2(C)COC2)COC1`, `CCCCSc1nc2c(cc1C#N)C(=O)CC(C)(C)C2` is lower in melting point: 108 to 110 °C for the first, 50 to 52 °C for the second.

Compared with `C/C=C(/COC(=O)CNC(=O)C(F)(F)F)c1ccccc1`, `CCCn1c(=O)c2c(nc(/C=C/c3ccc(OC)c(O)c3)n2C)n(CCC)c1=O` is higher in melting point: 49 to 50 °C for the first, 200 to 204 °C for the second.

Work on `COc1cc(SC)c(C)cc1OCCBr` yielded a melting point of 66 to 67 °C.
